Results taken from US8022052B2, “Inhibition of PPAR gamma expression by specific osteogenic oxysterols” (The Regents of the University of California, priority 2006, dated 2011).
“Also recorded” adds a separate entry of the source.

What was measured:
C/EBPα = C/EBPα mRNA expression in M2 cells by quantitative real-time PCR; format: cell-based, mouse; conditions: 10 μM Tro, 5 μM 20S, 24, 48, 96 hours
Protocol: . M2 cells at confluence were treated with control vehicle, 10 μM Tro, or 5 μM 20S, alone or in combination for 24 (FIG. 3A), 48 (FIG. 3B), and 96 (FIG. 3C) hours. C/EBPα mRNA expression was measured by quantitative real-time PCR. Fold changes in gene expression relative to the control were calculated using the ΔΔCt method and reported as the mean of triplicate determination ±SD (p<0.0001 for Tro vs. control and p<0.001 for Tro+20S vs. control at 24 hours (FIG. 3A); p<0.0001 for Tro vs. control and p<0.001 for Tro+20S vs. control at 48 hours (FIG. 3B); p<0.0001 for Tro or Tro+20S vs. control at 96 hours (FIG. 3C).

murine PPARγ2 promoter = test: PPARγ2 promoter luciferase activity induced by C/EBPα overexpression in M2 cells; format: cell-based, mouse; conditions: p19-PPARγ2 with MSV-C/EBPα plasmid, 24 h
Protocol: For PPARγ promoter activity assays, M2 cells were transiently transfected with a murine PPARγ2 promoter construct luciferase plasmid (p19-PPARγ2; (kind gift of Dr Steven McKnight), along with MSV-C/EBPα overexpression plasmid (kind gift of Dr. Sophia Tsai) and pTK-Renilla-Luciferase plasmid. Luciferase activity was measured after 24 h and normalized for transfection efficiency using the Renilla Luciferase activity.
To determine if 20S and Shh inhibit PPARγ expression by acting directly on its promoter, we focused on C/EBPα regulated PPARγ promoter activity.
(§1) After 10 days, adipocyte formation was measured by Oil red O staining. The number of adipocytes was determined by counting Oil red O-positive cells in five separate fields per well, in three wells per experimental condition. […] After 48 h, PPARγ mRNA expression was measured by quantitative real-time PCR. […] Luciferase activity was measured after 24 h and normalized for transfection efficiency using the Renilla luciferase activity.

aP2 = aP2 mRNA expression in M2 cells by quantitative real-time PCR; format: cell-based, mouse; conditions: 10 μM Tro, 5 μM 20S, 24, 48, 96 hours
Protocol: . M2 cells at confluence were treated with control vehicle, 10 μM Tro, or 5 μM 20S, alone or in combination for 24 hours (FIG. 4A), 48 hours (FIG. 4B), and 96 hours (FIG. 4C). aP2 mRNA expression was measured by quantitative real-time PCR. Fold changes in gene expression relative to the control were calculated using the ΔΔCt method and reported as the mean of triplicate determination ±SD (p<0.0001 for Tro or Tro+20S vs. control or 20S and p<0.01 for Tro vs. Tro+20S at 24 hours (FIG. 4A); p<0.0001 for Tro or Tro+20S vs. control or 20S and for Tro vs. Tro+20S at 48 hours (FIG. 4B); p<0.0001 for Tro vs. control, 20S, or Tro+20S and p<0.001 for Tro+20S vs. control or 20S at 96 hours (FIG. 4C)).

[1] = test system: M2-10B4 (M2) murine pluripotent bone MSC line; conditions: cited from earlier work
LXRs = test: LXR activation in M2 cells; format: cell-based, mouse; conditions: data not shown
PPARγ [2] = test: PPARγ mRNA expression in M2 cells by RT-qPCR; format: cell-based, mouse; conditions: M2 cells, 10 μM Tro, oxysterol 5 μM; 24, 48, 96 h (20S), 48 h (Oxy13)
Protocol: (§2) M2 mouse MSCs were purchased from American Type Culture Collection (ATCC, Rockville, Md., USA). […] Cell culture was performed in 24- and 6-well plates for adipogenic differentiation and gene expression studies, respectively, and treatment with test agents was done in growth medium.
(§3) Total RNA was extracted with the RNA isolation kit from Stratagene (La Jolla, Calif., USA) according to the manufacturer's instructions. RNA was DNase-treated using DNA-free kit from Ambion (Austin, Tex., USA). Three micrograms of RNA was reverse-transcribed using reverse transcriptase from Stratagene to make single-stranded cDNA. The cDNA was mixed with Qi SYBR Green Supermix (Bio-Rad) for quantitative RT-PCR assay using a Bio-Rad I-cycler IQ quantitative thermocycler. All PCR samples were prepared in triplicate wells of a 96-well plate. After 40 cycles of PCR, melt curves were examined to ensure primer specificity. Fold changes in gene expression were calculated using the ΔΔCt method. […] Primers used are as follows: PPARγ2 (5′-[…]-3′ and 5′-[…]-3′), C/EBPα (5′-[…]-3′ and 5′-[…]-3′), ap2 (5′-[…]-3′ and 5′-[…]-3′), LPL (5′-[…]-3′ and 5′-[…]-[…]), GATA2 (5′-[…]-3′ and 5′-[…]-3′), GATA3 (5′-[…]-3′ and 5′-[…]-3′), GILZ (5′-[…]-3′ and 5′-[…]-3′), and pref-1 (5′-[…]-3′ and 5′-[…]-3′).
(§4) Adipocyte formation was examined by Oil red O staining. […] PPARγ expression was assessed by RT-qPCR after treating M2 cells with Tro in the presence or absence of 20S. […] M2 cells at confluence were treated with control vehicle, 10 μM Tro, or 5 μM 20S, alone or in combination for 24 hours (FIG. 2A), 48 hours (FIG. 2B), and 96 hours (FIG. 2C). PPARγ mRNA expression was measured by quantitative real-time PCR.
as §1
After 48 hours of treatment, RNA was extracted from cells and analyzed for PPARγ expression by Q-RT-PCR. Data from a representative experiment, normalized to GAPDH expression, are reported as the mean of triplicate determinations ±SD.

[3] = test system: GATA2, GATA3, Gilz, and pref-1; test: GATA2, GATA3, Gilz and pref-1 expression in M2 cells by RT-qPCR; format: cell-based, mouse; conditions: 24 and 48 h, data not shown
From the text: as §3

[4] = test system: M2-10B4 (M2) murine pluripotent bone MSC line; test: Tro-induced adipocyte formation in M2 cells, Oil red O staining; format: cell-based, mouse; conditions: M2 cells, 10 μM Tro, oxysterol 5 μM, 10 days
Protocol: as §2
Oil red O staining for detection of adipocytes was performed as previously described. […] The number of adipocytes was quantitated by counting Oil red O-positive cells in five separate fields per well, in three wells per experimental condition. The results are reported as the mean of triplicate determination ±SD.
as §4, §1
Synthetic oxysterol compounds were studied for inhibition of adipogenesis and PPAR expression. […] After 10 days of treatment, cells were stained with Oil-red-O to detect adipocytes, and the number of positively stained cells was determined using light microscopy. Data from a representative experiment are reported as the mean of triplicate determination (average of five fields per well, 3 wells per experimental condition) ±SD.

PPARγ [5] = test: PPRE luciferase reporter assay (PPARγ transcriptional activity) in M2 cells; format: cell-based, mouse
From the text: (§5) M2 cells at 70% confluency in a 24-well plate were transiently transfected with: a plasmid containing three tandem repeats of the PPAR response element (PPRE) upstream of the basic thymidine kinase promoter (p3xPPRE-TK-Luciferase), a control pTK-Luciferase plasmid devoid of PPRE, a CMX-PPARγ expression plasmid (all kind gifts of Dr Peter Tontonoz), a CMX-RXRα expression plasmid (kind gift of Dr Sotirios Tetradis), and a pTK-Renilla-Luciferase plasmid (Promega, Madison, Wis., USA) using Fugene 6 Transfection Reagents from Roche (Indianapolis, Ind., USA). Luciferase activity assay was performed using Dual-Luciferase Reporter 1000 Assay System (Promega, Madison, Wis., USA). Luciferase reporter activity was normalized to Renilla Luciferase activity. […] For GATA reporter assays, M2 cells were transfected with a GATA Luciferase reporter vector or a control reporter vector (both from Panomics, Fremont, Calif., USA), and pTK-Renilla-Luciferase plasmid.
M2 cells were transiently transfected with a reporter construct containing three tandem repeats of a PPRE (pTK-3×PPRE-Luciferase) or the control plasmid (pTK-Luciferase). Cells were treated with 10 μM Tro or control vehicle, and luciferase activity was measured after 24 and 48 h. […] Because PPARγ and retinoid X receptor (RXR) form obligatory heterodimers, we studied whether 20S would have an effect when both PPARγ and RXRα were overexpressed. […] Luciferase activity was measured after 24 hours and normalized for transfection efficiency using the Renilla luciferase activity. […] Luciferase activity was normalized for transfection efficiency using the Renilla luciferase activity. […] Luciferase activity was measured after 24 hours and normalized to the Renilla luciferase activity.

GATA = GATA luciferase reporter in M2 cells; format: cell-based, mouse; conditions: 24 and 48 h, data not shown
From the text: as §5

SMILES: CC(C)CCC[C@](C)(O)[C@H]1CC[C@H]2[C@@H]3CC=C4C[C@@H](O)CC[C@]4(C)[C@H]3CC[C@@]21C [Oxy 20S, 20(S)-hydroxycholesterol]
- effect of 20S on Tro-induced C/EBPα mRNA expression (C/EBPα): did not inhibit
- inhibition of PPARγ2 promoter activity induced by C/EBPα overexpression (murine PPARγ2 promoter): greatly inhibited; also recorded: inhibit; also recorded: significantly inhibited
- effect of 20S on Tro-induced aP2 mRNA expression (aP2): inhibited
- adipogenic differentiation of M2 cells (previously reported) [1]: inhibit
- activation of LXRs (LXRs): activation
- inhibition of Tro-induced PPARγ mRNA expression (PPARγ [2]): completely inhibited; also recorded: almost completely blocked; also recorded: specifically inhibited; also recorded: inhibits
- GATA2/GATA3, Gilz, and pref-1 gene expression [3]: does not increase
- inhibition of Tro-induced adipocyte formation [4]: completely inhibited; also recorded: significantly inhibited
- effect of 20S on Tro-induced PPRE reporter activity (PPARγ transcriptional activity) (PPARγ [5]; M2 cells overexpressing PPARγ): did not inhibit but rather enhanced; also recorded: not inhibited but rather enhanced; also recorded: does not inhibit
- effect of 20S on PPARγ-RXRα induced PPRE reporter activity (PPARγ [5]; M2 cells overexpressing PPARγ and RXRα, 24 hours): did not inhibit; also recorded: enhanced
- effect of 20S on Tro-induced PPRE reporter activity (PPARγ [5]; M2 cells without PPARγ overexpression, 24 hours): did not inhibit Tro-induced PPRE reporter activity, but instead caused a small but significant increase
- GATA transcriptional activity (GATA): does not increase
